Reference: patent publication US10590140B2, “Tetrahydropyrimidodiazepine and dihydropyridodiazepine compounds for treating pain and pain related conditions” (ESTEVE PHARMACEUTICALS, S.A., priority 2016, dated 2020)

Target: human α2δ-1 subunit of Cav2.2 calcium channel (Homo sapiens (Human), UniProt P54289)
Test: Binding assay to human α2δ-1 subunit of Cav2.2 calcium channel ([3H]-Gabapentin)
Conditions: Table 2, dual compounds; [3H]-Gabapentin binding; read-out: Ki (nM) α2δ-1
Experimental: Binding Assay to Human α2δ-1 Subunit of Cav2.2 Calcium Channel.
NSB (non specific binding) was measured by adding 10 μM pregabalin. After 60 min incubation at 27° C., binding reaction was terminated by filtering through Multiscreen GF/C (Millipore) presoaked in 0.5% polyethyleneimine in Vacuum Manifold Station, followed by 3 washes with ice-cold filtration buffer containing 50 mM Tris-HCl, pH 7.4.
Filter plates were dried at 60° C. for 1 hour and 30 μl of scintillation cocktail were added to each well before radioactivity reading.

human α2δ-1 subunit of Cav2.2 calcium channel, sequence (P54289 25-1103): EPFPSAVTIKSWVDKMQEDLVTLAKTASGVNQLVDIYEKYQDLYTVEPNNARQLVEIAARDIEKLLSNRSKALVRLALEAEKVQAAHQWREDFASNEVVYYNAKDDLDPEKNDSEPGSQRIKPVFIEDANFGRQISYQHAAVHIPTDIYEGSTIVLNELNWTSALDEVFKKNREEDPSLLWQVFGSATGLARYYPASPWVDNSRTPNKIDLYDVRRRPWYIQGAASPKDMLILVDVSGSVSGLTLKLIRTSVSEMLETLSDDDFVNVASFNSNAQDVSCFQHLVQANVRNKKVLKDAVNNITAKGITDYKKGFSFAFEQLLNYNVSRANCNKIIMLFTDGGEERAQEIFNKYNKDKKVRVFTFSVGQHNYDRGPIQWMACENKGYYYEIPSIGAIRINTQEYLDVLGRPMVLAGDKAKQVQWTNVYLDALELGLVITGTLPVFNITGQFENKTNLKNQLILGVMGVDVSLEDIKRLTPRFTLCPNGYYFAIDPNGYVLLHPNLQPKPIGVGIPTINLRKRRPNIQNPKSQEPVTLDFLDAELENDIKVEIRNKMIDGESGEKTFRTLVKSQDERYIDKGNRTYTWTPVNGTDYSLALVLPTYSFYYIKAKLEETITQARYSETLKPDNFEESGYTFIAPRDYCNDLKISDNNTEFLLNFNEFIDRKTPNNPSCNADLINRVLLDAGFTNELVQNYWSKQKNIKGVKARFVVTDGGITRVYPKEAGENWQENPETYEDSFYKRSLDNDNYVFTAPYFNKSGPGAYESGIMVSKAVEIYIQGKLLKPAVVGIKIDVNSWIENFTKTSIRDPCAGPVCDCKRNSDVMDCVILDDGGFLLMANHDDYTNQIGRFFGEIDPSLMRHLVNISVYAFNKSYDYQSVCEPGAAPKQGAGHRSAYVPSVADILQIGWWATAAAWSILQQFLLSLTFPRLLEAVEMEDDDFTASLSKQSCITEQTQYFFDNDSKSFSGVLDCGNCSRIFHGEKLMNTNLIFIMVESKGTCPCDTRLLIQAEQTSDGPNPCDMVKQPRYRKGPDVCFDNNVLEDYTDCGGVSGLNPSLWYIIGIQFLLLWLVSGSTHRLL

Question: Which Ki does the source give for `CNCCC(OCc1cccc(N2CCN(C)c3nc(OC)ncc3C2=O)c1)c1cccs1` (stereo not drawn) [Example 221, 2-methoxy-9-methyl-6-(3-((3-(methylamino)-1-(thiophen-2-yl)propoxy)methyl)phenyl)-6,7,8,9-tetrahydro-5H-pyrimido[4,5-e][1,4]diazepin-5-one] here?
Answer: 100 to 500 nM

Same assay, conditions: binding to α2δ-1, [3H]-Gabapentin; read-out: Ki (nM) α2δ-1

Question: With `CCNc1ncc2c(n1)N(C)CCN(Cc1ccc(OC(CN(C)C(=O)OC(C)(C)C)c3ccccc3)cc1)C2=O` (stereo not drawn) [Example 136, tert-butyl (2-(4-((2-(ethylamino)-9-methyl-5-oxo-5,7,8,9-tetrahydro-6H-pyrimido[4,5-e][1,4]diazepin-6-yl)methyl)phenoxy)-2-phenylethyl)(methyl) carbamate] as the molecule, how does the Ki read?
Answer: > 3000 nM

Question: How did the Ki turn out when `CSc1ncc2c(n1)N(C)CCN(c1cccc(OCCCN(C)C(=O)OC(C)(C)C)c1)C2=O` [Example 20, tert-butyl methyl(3-(3-(9-methyl-2-(methylthio)-5-oxo-5,7,8,9-tetrahydro-6H-pyrimido[4,5-e][1,4]diazepin-6-yl)phenoxy)propyl) carbamate] was run?
Answer: > 3000 nM

Question: With `CNCC(Oc1ccccc1CN1CCN(C)c2nc(SC)ncc2C1=O)c1ccccc1` (stereo not drawn) [Example 371, 9-methyl-6-(2-(2-(methylamino)-1-phenylethoxy)benzyl)-2-(methylthio)-6,7,8,9-tetrahydro-5H-pyrimido[4,5-e][1,4]diazepin-5-one] as the molecule, how does the Ki read?
Answer: > 3000 nM

Question: `CCNc1ncc2c(n1)N(C)CCN(c1cccc(OC(C)CN(C)Cc3ccccc3)c1)C2=O` (stereo not drawn) [Example 262, 6-(3-((1-(benzyl(methyl)amino)propan-2-yl)oxy)phenyl)-2-(ethylamino)-9-methyl-6,7,8,9-tetrahydro-5H-pyrimido[4,5-e][1,4]diazepin-5-one] was tested. Which Ki did it give?
Answer: 500 to 3000 nM

Question: `CCNc1ncc2c(n1)N(C)CCN(Cc1ccccc1OC(CNC)c1ccccc1)C2=O` (stereo not drawn) [Example 410, 2-(ethylamino)-9-methyl-6-(2-(2-(methylamino)-1-phenylethoxy)benzyl)-6,7,8,9-tetrahydro-5H-pyrimido[4,5-e][1,4]diazepin-5-one] was tested. Which Ki did it give?
Answer: > 3000 nM

Question: For `CCNc1ncc2c(n1)N(C)CCN(c1ccccc1OC(CCNC)c1ccccc1)C2=O` (stereo not drawn) [Example 188, 2-(ethylamino)-9-methyl-6-(2-(3-(methylamino)-1-phenylpropoxy)phenyl)-6,7,8,9-tetrahydro-5H-pyrimido[4,5-e][1,4]diazepin-5-one], which Ki is on record?
Answer: > 3000 nM

Question: For `CCNc1ncc2c(n1)N(C)CCN(c1cccc(OCCNC)c1)C2=O` [Example 170, 2-(ethylamino)-9-methyl-6-(3-(2-(methylamino)ethoxy)phenyl)-6,7,8,9-tetrahydro-5H-pyrimido[4,5-e][1,4]diazepin-5-one], which Ki is on record?
Answer: 100 to 500 nM

Question: `CNCCC(OCc1cccc(N2CCN(C)c3nc(OC)ncc3C2=O)c1)c1cccs1` (stereo not drawn) [Example 221, 2-methoxy-9-methyl-6-(3-((3-(methylamino)-1-(thiophen-2-yl)propoxy)methyl)phenyl)-6,7,8,9-tetrahydro-5H-pyrimido[4,5-e][1,4]diazepin-5-one] was tested. Which Ki did it give?
Answer: 500 to 3000 nM

Question: `CCNc1ncc2c(n1)N(C)CCN(c1cccc(-c3nnc(CN(C)Cc4ccccc4)o3)c1)C2=O` [Example 255, 6-(3-(5-((benzyl(methyl)amino)methyl)-1,3,4-oxadiazol-2-yl)phenyl)-2-(ethylamino)-9-methyl-6,7,8,9-tetrahydro-5H-pyrimido[4,5-e][1,4]diazepin-5-one] was tested. Which Ki did it give?
Answer: 100 to 500 nM

Question: How did the Ki turn out when `CN(CCC(OCc1cccc(N2CCN(C)c3ncncc3C2=O)c1)c1cccs1)C(=O)OC(C)(C)C` (stereo not drawn) [Example 146, tert-butyl methyl(3-((3-(9-methyl-5-oxo-5,7,8,9-tetrahydro-6H-pyrimido[4,5-e][1,4]diazepin-6-yl)benzyl)oxy)-3-(thiophen-2-yl)propyl)carbamate] was run?
Answer: > 3000 nM

Question: With `CCNc1cc2c(cn1)C(=O)N(c1cccc(OC(CCN(C)C(=O)OCC[Si](C)(C)C)c3cccs3)c1)CCN2C` (stereo not drawn) [Example 58, 2-(trimethyl-silyl)ethyl (3-(3-(8-(ethylamino)-1-methyl-5-oxo-1,2,3,5-tetrahydro-4H-pyrido[4,3-e] [1,4]diazepin-4-yl)phenoxy)-3-(thiophen-2-yl)propyl)(methyl) carbamate] as the molecule, how does the Ki read?
Answer: > 3000 nM

Question: With `CSc1ncc2c(n1)N(C)CCN(c1cccc(OC(CCN(C)C(=O)OC(C)(C)C)c3cccnc3)c1)C2=O` (stereo not drawn) [Example 53, tert-butyl methyl(3-(3-(9-methyl-2-(methylthio)-5-oxo-5,7,8,9-tetrahydro-6H-pyrimido[4,5-e][1,4]diazepin-6-yl)phenoxy)-3-(pyridin-3-yl)propyl) carbamate] as the molecule, how does the Ki read?
Answer: > 3000 nM

Question: With `CNCCC(OCc1cccc(N2CCN(C)c3nc(SC)ncc3C2=O)c1)C(C)C` (stereo not drawn) [Example 190, 9-methyl-6-(3-(((4-methyl-1-(methylamino)pentan-3-yl)oxy)methyl)phenyl)-2-(methylthio)-6,7,8,9-tetrahydro-5H-pyrimido[4,5-e][1,4]diazepin-5-one] as the molecule, how does the Ki read?
Answer: > 3000 nM

Question: How did the Ki turn out when `Cc1nnc(-c2cccc(N3CCN(C)c4nc(NCCc5ccccc5)ncc4C3=O)c2)o1` [Example 105, 9-methyl-6-(3-(5-methyl-1,3,4-oxadiazol-2-yl)phenyl)-2-(phenethylamino)-6,7,8,9-tetrahydro-5H-pyrimido[4,5-e][1,4]diazepin-5-one] was run?
Answer: > 3000 nM

Question: `CCNc1ncc2c(n1)N(C)CCN(c1cccc(OCCCNC)c1)C2=O` [Example 168, 2-(ethylamino)-9-methyl-6-(3-(3-(methylamino)propoxy)phenyl)-6,7,8,9-tetrahydro-5H-pyrimido[4,5-e][1,4]diazepin-5-one] was tested. Which Ki did it give?
Answer: 100 to 500 nM

Question: How did the Ki turn out when `CCNc1ncc2c(n1)N(C)CCN(c1cccc(C(=O)O)c1)C2=O` [Example 313, 3-(2-(ethylamino)-9-methyl-5-oxo-5,7,8,9-tetrahydro-6H-pyrimido[4,5-e][1,4]diazepin-6-yl)benzoic acid] was run?
Answer: > 3000 nM

Question: `Cc1nnc(-c2cccc(N3CCN(C)c4nc(NC5CCCCC5)ncc4C3=O)c2)o1` [Example 103, 2-(cyclohexylamino)-9-methyl-6-(3-(5-methyl-1,3,4-oxadiazol-2-yl)phenyl)-6,7,8,9-tetrahydro-5H-pyrimido[4,5-e][1,4]diazepin-5-one] was tested. Which Ki did it give?
Answer: > 3000 nM

Question: With `CCNc1ncc2c(n1)N(C)CCN(c1cccc(C(=O)N3CCC(c4ccccc4)(N(C)C)CC3)c1)C2=O` [Example 314, 6-(3-(4-(dimethylamino)-4-phenylpiperidine-1-carbonyl)phenyl)-2-(ethylamino)-9-methyl-6,7,8,9-tetrahydro-5H-pyrimido[4,5-e][1,4]diazepin-5-one] as the molecule, how does the Ki read?
Answer: > 3000 nM

Question: With `CCNc1ncc2c(n1)N(C)CCN(c1cccc(O)c1)C2=O` [Example 177, 2-(ethylamino)-6-(3-hydroxyphenyl)-9-methyl-6,7,8,9-tetrahydro-5H-pyrimido[4,5-e][1,4]diazepin-5-one] as the molecule, how does the Ki read?
Answer: > 3000 nM

Question: `CN(CCC(Oc1cccc(N2CCN(C)c3cc(Cl)ncc3C2=O)c1)c1cccs1)C(=O)OCC[Si](C)(C)C` (stereo not drawn) [Example 297, 2-(trimethylsilyl)ethyl (3-(3-(8-chloro-1-methyl-5-oxo-1,2,3,5-tetrahydro-4H-pyrido[4,3-e][1,4]diazepin-4-yl)phenoxy)-3-(thiophen-2-yl)propyl)(methyl) carbamate] was tested. Which Ki did it give?
Answer: > 3000 nM

Question: How did the Ki turn out when `CCNc1ncc2c(n1)N(C)CCN(c1ccc(OC)cc1)C2=O` [Example 114, 2-(ethylamino)-6-(4-methoxyphenyl)-9-methyl-6,7,8,9-tetrahydro-5H-pyrimido[4,5-e][1,4]diazepin-5-one] was run?
Answer: > 3000 nM

Question: Which Ki does the source give for `CCNc1ncc2c(n1)N(C)CCN(c1cccc(Cn3cc(CN(C)Cc4ccccc4)nn3)c1)C2=O` [Example 250, 6-(3-((4-((benzyl (methyl)amino)methyl)-1H-1,2,3-triazol-1-yl)methyl)phenyl)-2-(ethylamino)-9-methyl-6,7,8,9-tetrahydro-5H-pyrimido[4,5-e][1,4]diazepin-5-one] here?
Answer: 500 to 3000 nM

Question: How did the Ki turn out when `CCNc1ncc2c(n1)N(C)CCN(c1cccc(CCCN(C)C(=O)OC(C)(C)C)c1)C2=O` [Example 91, tert-butyl (3-(3-(2-(ethylamino)-9-methyl-5-oxo-5,7,8,9-tetrahydro-6H-pyrimido[4,5-e][1,4]diazepin-6-yl)phenyl)propyl) (methyl)carbamate] was run?
Answer: > 3000 nM

Question: With `CSc1ncc2c(n1)N(C)CCN(c1cccc(OC(CNC(=O)OC(C)(C)C)c3ccccc3)c1)C2=O` (stereo not drawn) [Example 5, tert-butyl (2-(3-(9-methyl-2-(methylthio)-5-oxo-5,7,8,9-tetrahydro-6H-pyrimido[4,5-e][1,4]diazepin-6-yl)phenoxy)-2-phenylethyl) carbamate] as the molecule, how does the Ki read?
Answer: > 3000 nM

Question: For `CSc1ncc2c(n1)N(C)CCN(c1cccc(-n3cc(CN(C)C(=O)OC(C)(C)C)cn3)c1)C2=O` [Example 45, tert-butyl methyl((1-(3-(9-methyl-2-(methylthio)-5-oxo-5,7,8,9-tetrahydro-6H-pyrimido[4,5-e][1,4]diazepin-6-yl)phenyl)-1H-pyrazol-4-yl)methyl) carbamate], which Ki is on record?
Answer: > 3000 nM

Question: For `CCNc1ncc2c(n1)N(C)CCN(c1cccc(-n3cc(CN(CC4CC4)CC4CC4)nn3)c1)C2=O` [Example 245, 6-(3-(4-((bis (cyclopropylmethyl)amino)methyl)-1H-1,2,3-triazol-1-yl)phenyl)-2-(ethylamino)-9-methyl-6,7,8,9-tetrahydro-5H-pyrimido[4,5-e][1,4]diazepin-5-one], which Ki is on record?
Answer: 500 to 3000 nM

Question: With `CCNc1ncc2c(n1)N(C)CCN(c1cccc(-c3nnc(CNC)o3)c1)C2=O` [Example 187, 2-(ethylamino)-9-methyl-6-(3-(5-((methylamino)methyl)-1,3,4-oxadiazol-2-yl)phenyl)-6,7,8,9-tetrahydro-5H-pyrimido[4,5-e][1,4]diazepin-5-one] as the molecule, how does the Ki read?
Answer: > 3000 nM

Question: How did the Ki turn out when `CCNc1ncc2c(n1)N(C)CCN(c1ccc(O)cc1)C2=O` [Example 178, 2-(ethylamino)-6-(4-hydroxyphenyl)-9-methyl-6,7,8,9-tetrahydro-5H-pyrimido[4,5-e][1,4]diazepin-5-one] was run?
Answer: > 3000 nM

Question: `CCNc1ncc2c(n1)N(C)CCN(c1cccc(-c3nnc(C)o3)c1)C2=O` [Example 97, 2-(ethylamino)-9-methyl-6-(3-(5-methyl-1,3,4-oxadiazol-2-yl)phenyl)-6,7,8,9-tetrahydro-5H-pyrimido[4,5-e][1,4]diazepin-5-one] was tested. Which Ki did it give?
Answer: < 100 nM
